BindingDB's records for doi:10.1021/bi00180a024 (Medical University of South Carolina, 1994)
pKi: −log10 of the molar value.

Biological target: T1, 5-hydroxytryptamine receptor 1A (Homo sapiens, UniProt P08908)
T1 sequence (P08908 whole entry): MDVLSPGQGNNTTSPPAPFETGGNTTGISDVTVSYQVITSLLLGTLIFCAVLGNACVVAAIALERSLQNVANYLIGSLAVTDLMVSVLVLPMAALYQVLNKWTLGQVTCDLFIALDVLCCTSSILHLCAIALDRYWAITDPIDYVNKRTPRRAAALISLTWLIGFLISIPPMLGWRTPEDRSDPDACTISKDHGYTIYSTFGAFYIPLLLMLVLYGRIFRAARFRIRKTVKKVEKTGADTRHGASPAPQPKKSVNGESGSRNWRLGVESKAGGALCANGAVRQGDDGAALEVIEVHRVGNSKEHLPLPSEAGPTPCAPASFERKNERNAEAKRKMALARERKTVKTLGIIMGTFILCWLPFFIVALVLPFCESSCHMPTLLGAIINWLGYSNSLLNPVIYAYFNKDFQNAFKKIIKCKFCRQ

Q: `O=C1c2ccccc2S(=O)(=O)N1CCCCN1CCN(c2ncccn2)CC1` [1,1-Dioxo-2-[4-(4-pyrimidin-2-yl-piperazin-1-yl)-butyl]-1,2-dihydro-1lambda*6*-benzo[d]isothiazol-3-one] was tested. Which pKi did it give?
A: The pKi was 6.89.
